Results on nine compounds are retold here after ChEMBL document CHEMBL3352609, “Synthesis of new 1-(4-methane(amino)sulfonylphenyl)-5-(4-substituted-aminomethylphenyl)-3-trifluoromethyl-1H-pyrazoles: a search for novel nitric oxide donor anti-inflammatory agents” (2014).

Common to all, as to assay type: functional
The test system of assay [1] is Rattus norvegicus. Briefly: Anti-inflammatory activity in carrageenan-induced rat foot paw edema model assessed as reduction in paw volume at 20 mg/kg dosed 30 mins before carrageenan injection and measured 3 hrs after carrageenan challenge. A general note: In the carrageenan paw model, swelling and tenderness develop within hours.
In assay [2] the test system is Rattus norvegicus. The assay can be described thus: Anti-inflammatory activity in carrageenan-induced rat foot paw edema model assessed as reduction in paw volume at 20 mg/kg dosed 30 mins before carrageenan injection and measured 5 hrs after carrageenan challenge.
Assay [3] relates to Rattus norvegicus. Briefly: Anti-inflammatory activity in carrageenan-induced rat foot paw edema model assessed as reduction in paw volume at 20 mg/kg dosed 30 mins before carrageenan injection and measured 1 hr after carrageenan challenge.

As usually defined, the inhibition in vivo is the drop in the measured response relative to a control, in per cent. Consider `CS(=O)(=O)c1ccc(-n2nc(C(F)(F)F)cc2-c2ccc(CN3CCNCC3)cc2)cc1`, for which the inhibition in vivo at 20 mg/kg is 73% in the assay with Rattus norvegicus [1], 66% with Rattus norvegicus [2] and 67% in the assay with Rattus norvegicus [3].

For `Cc1ccc(-c2cc(C(F)(F)F)nn2-c2ccc(S(N)(=O)=O)cc2)cc1` [CELECOXIB], the inhibition in vivo at 20 mg/kg was 80% in the assay with Rattus norvegicus [1], 48% with Rattus norvegicus [2] and 40% in the assay on Rattus norvegicus [3].

For the compound `CNCc1ccc(-c2cc(C(F)(F)F)nn2-c2ccc(S(N)(=O)=O)cc2)cc1`, the inhibition in vivo at 20 mg/kg turned out to be 69% in the assay with Rattus norvegicus [1], 57% in the assay on Rattus norvegicus [2] and 54% in the assay on Rattus norvegicus [3].

With `CCNCc1ccc(-c2cc(C(F)(F)F)nn2-c2ccc(S(C)(=O)=O)cc2)cc1`, the results for the inhibition in vivo at 20 mg/kg with Rattus norvegicus [1], with Rattus norvegicus [2] and in the assay on Rattus norvegicus [3] were 72%, 66% and 66%, respectively.

As to `NS(=O)(=O)c1ccc(-n2nc(C(F)(F)F)cc2-c2ccc(CN3CCNCC3)cc2)cc1`, the inhibition in vivo at 20 mg/kg is 70% in the assay on Rattus norvegicus [1], 35% with Rattus norvegicus [2] and 58% with Rattus norvegicus [3].

For the compound `CS(=O)(=O)c1ccc(-n2nc(C(F)(F)F)cc2-c2ccc(CN3CCN(N=O)CC3)cc2)cc1`, the results for the inhibition in vivo at 20 mg/kg with Rattus norvegicus [1], with Rattus norvegicus [2] and in the assay on Rattus norvegicus [3] were 43%, 29% and 19%, respectively.

Regarding `CCN(Cc1ccc(-c2cc(C(F)(F)F)nn2-c2ccc(S(C)(=O)=O)cc2)cc1)N=O`, the inhibition in vivo at 20 mg/kg came to 39% in the assay on Rattus norvegicus [1], 25% in the assay on Rattus norvegicus [2] and 24% in the assay on Rattus norvegicus [3].

Consider `CNCc1ccc(-c2cc(C(F)(F)F)nn2-c2ccc(S(C)(=O)=O)cc2)cc1`, for which the inhibition in vivo at 20 mg/kg came to 89% in the assay with Rattus norvegicus [1], 67% with Rattus norvegicus [2] and 72% with Rattus norvegicus [3].

Regarding `CCNCc1ccc(-c2cc(C(F)(F)F)nn2-c2ccc(S(N)(=O)=O)cc2)cc1`, the inhibition in vivo at 20 mg/kg turned out to be 71% in the assay with Rattus norvegicus [1], 39% in the assay on Rattus norvegicus [2] and 53% in the assay with Rattus norvegicus [3].
